Results: publication PMC12112332, “Characterization of Novel and Known Activators of Cannabinoid Receptor Subtype 2 Reveals Mixed Pharmacology That Differentiates Mycophenolate Mofetil and GW-842,166X from MDA7” (International Journal of Molecular Sciences, 2025)
Read-outs that look alike come from different tables or passages of the source.

Molecular target: T1, rCB2 (Rattus norvegicus, UniProt Q9QZN9)
T1 construct: expressed in transfected cells; host or cells: HEK293 cells stably co-expressing GIRK1/2 channels
T1 sequence (Q9QZN9 1-360): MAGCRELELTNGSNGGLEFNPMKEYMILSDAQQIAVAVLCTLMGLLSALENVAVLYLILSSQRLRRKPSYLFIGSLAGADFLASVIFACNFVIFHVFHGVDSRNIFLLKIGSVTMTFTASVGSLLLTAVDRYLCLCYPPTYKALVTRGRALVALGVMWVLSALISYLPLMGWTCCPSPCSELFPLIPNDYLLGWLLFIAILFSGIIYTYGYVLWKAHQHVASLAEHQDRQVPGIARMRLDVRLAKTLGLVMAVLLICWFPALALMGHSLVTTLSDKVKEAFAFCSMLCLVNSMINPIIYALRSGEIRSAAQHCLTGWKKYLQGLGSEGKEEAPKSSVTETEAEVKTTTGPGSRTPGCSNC
Assay: Thallium flux assay in HEK/GIRK cells expressing rCB2
Assay type: cell-based
Details: for rCB2 GIRK (−) 2-AG % Max ± SEM / rCB2 GIRK (+) 2-AG % Max ± SEM: % of maximal 2-AG response
Experimental: To identify new compounds capable of potentiating CB2 responses to the endogenous agonist 2-AG, we used a thallium flux assay measuring the ability of ligands to enhance 2-AG-induced responses in cells expressing rCB2 and GIRK1/2 channels to screen a collection of FDA-approved drugs. Compounds were added to cells loaded with thallium-sensitive dye and allowed to incubate for 2.3 min, whereupon a submaximal concentration (EC20) of 2-AG was added to the cells and the signal was monitored for an additional 2.7 min. The ~1000 compound collection was initially screened at a single point using a 10 µM concentration of the compound. Test compounds that potentiated the cellular response to 2-AG by a minimum of 3 standard deviations above the average EC20 agonist response were selected as potential PAM hits. A total of 63 putative PAMs were identified; of these, 13 were confirmed as active with concentration-dependent activity at the rCB2 receptor.
The cell lines used in this manuscript were generated in-house. Their preparation is described in detail in Qi et al.. Cells were used for 10 passages for experiments and day-to-day signals in both the CB2 and CB1 lines were stable across this passage number. Human Embryonic Kidney (HEK) 293 cells stably expressing rCB2 and the G protein Gqi9 were maintained in Dulbecco’s modified Eagle media (DMEM) containing 10% FBS, 1× antibiotic/antimycotic, 20 mM HEPES, 1 mM sodium pyruvate, 2 mM L-glutamine, 1× non-essential amino acids, 700 µg/mL G418 sulfate, and 0.6 µg/mL puromycin. HEK cells stably expressing rCB2 or rCB1 and the G protein inwardly rectifying potassium channel (GIRK) were maintained in DMEM/F12 containing 10% FBS, 1× antibiotic/antimycotic, 20 mM HEPES, 1 mM sodium pyruvate, 2 mM L-glutamine, 1× non-essential amino acids, 700 µg/mL G418 sulfate, and 0.6 µg/mL puromycin. Cells were monitored by periodic PCR detection using the LookOut Mycoplasma PCR Detection Kit (Sigma-Aldrich, St Louis, MO, USA) to eliminate potential mycoplasma infection. Reagents were obtained from Invitrogen (Waltham, MA, USA) unless otherwise noted.
Thallium flux assays were performed as previously described in Niswender et al., 2008 [31]. HEK/GIRK cells stably expressing rCB1 or rCB2 (15,000 cells/20 µL/well) were seeded in 384-well, poly-D-lysine coated assay plates (Corning BioCoat®) (Corning Inc., Corning, NY, USA) and incubated overnight at 37 °C in the presence of 5% CO2. The next day, the medium was removed and replaced with 20 μL of 1.2 µM thallium-sensitive dye Thallos-AM (ION biosciences, San Marcos, TX, USA), prepared as a DMSO stock solution mixed in a 1:1 ratio with 10% (w/v) pluronic acid F-127, and diluted in assay buffer (Hank’s balanced salt solution, 20 mM HEPES, pH 7.4). Following 1 h at room temperature, the dye solution was removed and replaced with 20 µL assay buffer. For screening of the FDA-Approved Drug Collection, 10 mM DMSO stocks of library compounds were transferred to daughter plates using an Echo acoustic plate reformatter (Labcyte, Sunnyvale, CA, USA) and diluted in assay buffer to a 2× final concentration. For concentration–response curve experiments, compounds were serially diluted 1:3 into 10-point concentration–response curves in DMSO, transferred to daughter plates using the Echo or Bravo Automated Liquid Handling Platform (Agilent Technologies, Santa Clara, CA, USA), and diluted in assay buffer to a 2× final concentration. Thallium flux was measured using the Hamamatsu FDSS/μCELL Kinetic Plate Imager (Bridgewater, NJ, USA). After the establishment of a fluorescence baseline (excitation, 480 ± 20 nm; emission, 540 ± 30 nm), 20 µL (2×) of test compound was added to the cells at 1 s and the response was measured. […]

[1] = rCB2 GIRK (−) 2-AG pEC50 ± SEM, thallium flux, absence of 2-AG
[2] = thallium flux, presence of EC20 2-AG

Structure (SMILES)	EC50 [1] [nM]	EC50 (rCB2 GIRK EC50 in absence of 2-AG, thallium flux, absence of 2-AG) [nM]	EC50 (rCB2 GIRK EC50 in presence of 2-AG, thallium flux, presence of EC20 2-AG) [nM]	rCB2 GIRK (−) 2-AG % Max ± SEM (thallium flux, absence of 2-AG) [%]	rCB2 GIRK (+) 2-AG % Max ± SEM [2] [%]	EC50 (rCB2 GIRK (+) 2-AG pEC50 ± SEM, thallium flux, presence of EC20 2-AG) [nM]	rCB2 GIRK (−) 2-AG pEC50 ± SEM (thallium flux, absence of 2-AG)	rCB2 GIRK (+) 2-AG pEC50 ± SEM [2]	EC50 (thallium flux rCB2, vehicle instead of AM630, read-out: pEC50 of mycophenolate mofetil CRC, vehicle (converted)) [nM]	EC50 (thallium flux, absence of 2-AG, read-out: rCB2 GIRK EC50 in absence of 2-AG) [nM]	EC50 (thallium flux, presence of EC20 2-AG, read-out: rCB2 GIRK EC50 in presence of 2-AG) [nM]
O=C(NCC1CCOCC1)c1cnc(Nc2ccc(Cl)cc2Cl)nc1C(F)(F)F [GW-842,166X, 2-(2,4-dichloroanilino)-N-(oxan-4-ylmethyl)-4-(trifluoromethyl)pyrimidine-5-carboxamide]	55	56	74	89 ± 5	82 ± 4	–	–	–	–	–	–
CC1(Cc2ccccc2)COc2cc(C(=O)N3CCCCC3)ccc21 (centres unmarked) [MDA7, 1-[(3-benzyl-3-methyl-2,3-dihydro-1-benzofuran-6-yl)carbonyl]piperidine]	> 10000	–	–	−64 ± 13	−65 ± 15	> 10000	< 5.0	< 5.0	–	–	–
COc1c(C)c2c(c(O)c1C/C=C(\C)CCC(=O)OCCN1CCOCC1)C(=O)OC2 [Mycophenolate mofetil]	–	–	–	71 ± 5	74 ± 2	–	–	–	339	154	228
COc1c(C)c2c(c(O)c1C/C=C(\C)CCC(=O)O)C(=O)OC2 [Mycophenolic acid]	–	–	–	–	–	–	–	Inactive	–	–	–
